Drawing on patent publication US9212138B2, “Use of derivatives of indoles for the treatment of cancer” (CENTRE NATIONAL DE LA RECHERCHE SCIENTIFIQUE, priority 2009, dated 2015), this text covers IC50 and activity for nine compounds.

The structures appear in SMILES notation.

One assay deals with T1, MKLP-2 (RabK6) (Homo sapiens, UniProt O95235, S2A).
T1 construct: Expression clones for MKLP-21-519 (coding for residues 1 to 519) were obtained as follows; His-tag; made in house; host or cells: E. coli BL21(DE3)
T1 sequence (O95235 1-519 S2A limits assumed): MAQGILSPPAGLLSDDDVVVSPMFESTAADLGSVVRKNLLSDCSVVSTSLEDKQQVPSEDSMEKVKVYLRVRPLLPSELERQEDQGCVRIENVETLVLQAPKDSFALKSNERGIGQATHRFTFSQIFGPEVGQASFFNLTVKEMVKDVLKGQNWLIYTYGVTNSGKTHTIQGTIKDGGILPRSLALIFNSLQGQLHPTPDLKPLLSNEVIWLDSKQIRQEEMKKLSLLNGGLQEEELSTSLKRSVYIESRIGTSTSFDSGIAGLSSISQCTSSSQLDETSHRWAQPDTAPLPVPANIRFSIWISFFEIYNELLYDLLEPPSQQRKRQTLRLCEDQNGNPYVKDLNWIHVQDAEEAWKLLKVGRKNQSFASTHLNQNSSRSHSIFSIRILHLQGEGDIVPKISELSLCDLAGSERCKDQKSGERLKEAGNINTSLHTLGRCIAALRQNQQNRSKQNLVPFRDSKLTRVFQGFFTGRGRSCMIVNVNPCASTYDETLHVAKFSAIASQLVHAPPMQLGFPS
Briefly: biochemical.
Conditions: not given
The method, then: All experiments were performed at room temperature using a 96-well Sunrise photometer (Tecan, Maennedorf, Switzerland) at a final volume of 100 μl per well.
Steady-state ATPase rates were measured using the pyruvate kinase/lactate dehydrogenase-linked assay in buffer A25A (25 mM potassium ACES, pH 6.9, 2 mM MgAc2, 2 mM Na-EGTA, 0.1 mM Na-EDTA, 1 mM β-mercaptoethanol) supplemented with 1 mM MgATP; 2 mM PEP; 0.25 mM NADH; 3-10 μg/ml pyruvate kinase; 3 μg/ml lactate dehydrogenase and 8 μM taxol.
The data were analyzed using Kaleidagraph 3.0 (Synergy Software, Reading, Pa.) and Microsoft Excel to obtain the kinetic variables.
When necessary, the inhibitor concentrations were adapted depending on the initial IC50 value. Experiments were performed in triplicate and averaged data points are shown with error bars±SD.
As to `COc1ccc2[nH]cc(/C(C#N)=C/c3cccc(C#N)c3)c2c1` [Example 30, (Z)-3-[2-cyano-2-(5-methoxy-1H-indol-3-yl)-vinyl]-benzonitrile], the IC50 was below 5 µM. For the compound `COc1ccc2c(/C(C#N)=C/c3cccnc3)c[nH]c2c1` [Example 26, (Z)-2-(6-methoxy-1H-indol-3-yl)-3-pyridin-3-yl-acrylonitrile], the IC50 was in the range of 5 to 10 µM. Still for that read-out and setting: the same measure for `N#C/C(=C\c1cccc(N)c1)c1c[nH]c2ccccc12` [Example 44, (Z)-3-(3-amino-phenyl)-2-(1H-indol-3-yl)-acrylonitrile]: above 50 µM; for `COc1ccc2[nH]cc(/C(C#N)=C/c3ccc(F)nc3)c2c1` [Example 28, (Z)-3-(6-fluoropyridin-3-yl)-2-(5-methoxy-1H-indol-3-yl)-acrylonitrile]: below 5 µM. Regarding `C#C/C(=C\c1cccnc1)c1c[nH]c2ccc(OC)cc12` [Example 58, (E)-5-methoxy-3-(1-(pyridin-3-yl)but-1-en-3-yn-2-yl)-1H-indole], the IC50 fell in the range of 5 to 10 µM. Regarding `COc1ccc2[nH]cc(/C(C#N)=C/c3ccc(C)nc3)c2c1` [Example 53, (Z)-2-(5-methoxy-1H-indol-3-yl)-3-(6-methylpyridin-3-yl)-acrylonitrile], the IC50 was below 5 µM.

The same assay, now with this note: basal ATPase activity, absence of MTs; read-out: RabK6 basal IC50 X.
`CC(C)Oc1ccc2[nH]cc(/C(C#N)=C/c3cccnc3)c2c1` [Example 23, (Z)-2-(5-isopropoxy-1H-indol-3-yl)-3-pyridin-3-yl-acrylonitrile]: the IC50 was below 5 µM.

Tested on in a further assay: not listed separately
Briefly: Activity of side products, test not stated. To be noted: side product of the synthesis.
For the compound `CCOc1ccncc1/C=C(\C#N)c1c[nH]c2ccc(OC)cc12` [Example 47b], the activity entry is recorded as “no activity”. With `NC(=O)/C(=C/c1cccnc1)c1c[nH]c2ccccc12`, the activity entry is recorded as “no activity”.
